Reference: ChEMBL document CHEMBL3804786, “Novel 1,3-thiazolidin-4-one derivatives as promising anti-Candida agents endowed with anti-oxidant and chelating properties” (Eur J Med Chem, 2016)
Values after ≈ are worked out from the molar mass of the structure shown.

Columns and labels:
[1] = tested on: Staphylococcus aureus; assay: Antibacterial activity against Staphylococcus aureus clinical isolate after 18 to 22 hrs by broth microdilution method; assay type: functional
[2] = tested on: Staphylococcus warneri; assay: Antibacterial activity against Staphylococcus warneri clinical isolate after 18 to 22 hrs by broth microdilution method; assay type: functional
[3] = tested on: Enterococcus faecalis; assay: Antibacterial activity against Streptococcus faecalis clinical isolate after 18 to 22 hrs by broth microdilution method; assay type: functional
[4] = tested on: Escherichia coli; assay: Antibacterial activity against Escherichia coli after clinical isolate 18 to 22 hrs by broth microdilution method; assay type: functional
[5] = tested on: Proteus mirabilis; assay: Antibacterial activity against Proteus mirabilis clinical isolate after 18 to 22 hrs by broth microdilution method; assay type: functional
[6] = tested on: Enterobacter sp.; assay: Antibacterial activity against Enterobacter spp. clinical isolate after 18 to 22 hrs by broth microdilution method; assay type: functional
[7] = tested on: Klebsiella oxytoca; assay: Antibacterial activity against Klebsiella oxytoca clinical isolate after 18 to 22 hrs by broth microdilution method; assay type: functional
[8] = tested on: Candida albicans; assay: Antifungal activity against Candida albicans clinical isolate after 24 hrs by broth microdilution method; assay type: functional
[9] = tested on: Nakaseomyces glabratus; assay: Antifungal activity against Candida glabrata clinical isolate after 24 hrs by broth microdilution method; assay type: functional
[10] = tested on: Candida tropicalis; assay: Antifungal activity against Candida tropicalis clinical isolate after 24 hrs by broth microdilution method; assay type: functional
[11] = tested on: Pichia kudriavzevii; assay: Antifungal activity against Candida krusei clinical isolate after 24 hrs by broth microdilution method; assay type: functional
[12] = tested on: Candida parapsilosis; assay: Antifungal activity against Candida parapsilosis clinical isolate after 24 hrs by broth microdilution method; assay type: functional; conditions: Lodderomyces parapsilosis
[13] = tested on: [Candida] sake; assay: Antifungal activity against Candida sake clinical isolate after 24 hrs by broth microdilution method; assay type: functional; conditions: Fermentozyma sake
[14] = Cytotoxicity against human Hep2 cells assessed as cell survival at 0.05 ug/ml after 24 hrs by trypan blue exclusion assay; assay type: cell-based, HEp-2; conditions: read-out: Survival
[15] = Cytotoxicity against human Hep2 cells assessed as cell survival at 0.5 ug/ml after 24 hrs by trypan blue exclusion assay; assay type: cell-based, HEp-2; conditions: read-out: Survival
[16] = Cytotoxicity against human Hep2 cells assessed as cell survival at 5 ug/ml after 24 hrs by trypan blue exclusion assay; assay type: cell-based, HEp-2; conditions: read-out: Survival
[17] = Cytotoxicity against human Hep2 cells assessed as cell survival at 10 ug/ml after 24 hrs by trypan blue exclusion assay; assay type: cell-based, HEp-2; conditions: read-out: Survival
[18] = Cytotoxicity against human Hep2 cells assessed as cell survival at 50 ug/ml after 24 hrs by trypan blue exclusion assay; assay type: cell-based, HEp-2; conditions: read-out: Survival
[19] = Cytotoxicity against human Hep2 cells assessed as reduction in cell viability after 24 hrs by trypan blue exclusion assay; assay type: cell-based, HEp-2
[20] = Antioxidant activity of the compound after 90 mins by phosphomolybdenum assay; assay type: physicochemical
[21] = Antioxidant activity of the compound after 30 mins by FRAP assay; assay type: physicochemical
[22] = Antioxidant activity of the compound after 30 mins by CUPRAC method; assay type: physicochemical
[23] = Antioxidant activity assessed as DPPH radical scavenging activity after 30 mins under dark conditions; assay type: physicochemical
[24] = Antioxidant activity assessed as ABTS radical scavenging activity after 30 mins under dark conditions; assay type: physicochemical
[25] = Metal chelating activity of the compound assessed as ferrous ion complex formation after 10 mins; assay type: physicochemical
[26] = tested on: Streptococcus sp. (viridans group); assay: Antibacterial activity against Streptococcus alpha-hemolyticus clinical isolate after 18 to 22 hrs by broth microdilution method

| SMILES | MIC [1] | MIC [2] | MIC [3] | MIC [4] | MIC [5] | MIC [6] | MIC [7] | MIC [8] | MIC [9] | MIC [10] | MIC [11] | MIC [12] | MIC [13] | viability at 24 h, 0.05 ug/ml [14] | viability at 24 h, 0.5 ug/ml [15] | viability at 24 h, 5 ug/ml [16] | viability at 24 h, 10 ug/ml [17] | viability at 24 h, 50 ug/ml [18] | CC50 at 24 h [19] | EC50 [20] | other results |
| --- | --- | --- | --- | --- | --- | --- | --- | --- | --- | --- | --- | --- | --- | --- | --- | --- | --- | --- | --- | --- | --- |
| C/C(=N/N=C1\SCC(=O)N1Cc1ccc(F)cc1)c1cccs1 | > 256 µg/mL | > 256 µg/mL | > 256 µg/mL | > 256 µg/mL | > 256 µg/mL | > 256 µg/mL | > 256 µg/mL | 2 µg/mL (≈ 5.76 µM) | 2 µg/mL (≈ 5.76 µM) | 2 µg/mL (≈ 5.76 µM) | 2 µg/mL (≈ 5.76 µM) | 4 µg/mL (≈ 11.5 µM) | 8 µg/mL (≈ 23 µM) | 83% | 76% | 68% | 52% | 0% | 15 µg/mL (≈ 43.2 µM) | 1.37 mM | EC50 [21]: 2.02 mM; EC50 [22]: 1.85 mM; IC50 [23]: > 5 mM; IC50 [24]: 21.5 mM; IC50 [25]: 3.9 mM; MIC [26]: > 256 µg/mL |
| C/C(=N\N=C1/SCC(=O)N1Cc1cccc(Cl)c1)c1cccs1 | > 256 µg/mL | > 256 µg/mL | > 256 µg/mL | > 256 µg/mL | > 256 µg/mL | > 256 µg/mL | > 256 µg/mL | 2 µg/mL (≈ 5.5 µM) | 2 µg/mL (≈ 5.5 µM) | 2 µg/mL (≈ 5.5 µM) | 2 µg/mL (≈ 5.5 µM) | 2 µg/mL (≈ 5.5 µM) | 2 µg/mL (≈ 5.5 µM) | 94% | 89% | 82% | 63% | 0% | 21 µg/mL (≈ 57.7 µM) | 1.16 mM | EC50 [21]: 2.32 mM; EC50 [22]: 1.59 mM; IC50 [23]: > 5 mM; IC50 [24]: 20.3 mM; IC50 [25]: 1.64 mM; MIC [26]: > 256 µg/mL |
| C/C(=N\N=C1/SCC(=O)N1Cc1cccc(F)c1)c1cccs1 | > 256 µg/mL | > 256 µg/mL | > 256 µg/mL | > 256 µg/mL | > 256 µg/mL | > 256 µg/mL | > 256 µg/mL | 2 µg/mL (≈ 5.76 µM) | 8 µg/mL (≈ 23 µM) | 2 µg/mL (≈ 5.76 µM) | 2 µg/mL (≈ 5.76 µM) | 2 µg/mL (≈ 5.76 µM) | 2 µg/mL (≈ 5.76 µM) | 80% | 68% | 42% | 0% | 0% | 6 µg/mL (≈ 17.3 µM) | 1.36 mM | EC50 [21]: 2.62 mM; EC50 [22]: 2.55 mM; IC50 [23]: > 5 mM; IC50 [24]: 21.1 mM; IC50 [25]: 4.64 mM; MIC [26]: > 256 µg/mL |
| C/C(=N/N=C1\SCC(=O)N1Cc1ccc(F)cc1)c1ccccn1 | > 256 µg/mL | > 256 µg/mL | > 256 µg/mL | > 256 µg/mL | > 256 µg/mL | > 256 µg/mL | > 256 µg/mL | 2 µg/mL (≈ 5.84 µM) | 2 µg/mL (≈ 5.84 µM) | 2 µg/mL (≈ 5.84 µM) | 8 µg/mL (≈ 23.4 µM) | 4 µg/mL (≈ 11.7 µM) | 2 µg/mL (≈ 5.84 µM) | 91% | 83% | 70% | 42% | 0% | 16 µg/mL (≈ 46.7 µM) | 1.16 mM | EC50 [21]: 6.22 mM; EC50 [22]: 1.75 mM; IC50 [23]: > 5 mM; IC50 [24]: 16.1 mM; IC50 [25]: 3.67 mM; MIC [26]: > 256 µg/mL |
